The source of these data is US9167815B2, “Agricultural or horticultural fungicide composition and method for controlling plant pathogen” (ISHIHARA SANGYO KAISHA, LTD., priority 2011, dated 2015).

For orientation: inhibition means the share of the control response that was lost under treatment.

Type in all cases: cell-based
The test system of one test is Pythium graminicola. The test can be described thus: Inhibition test of mycelial growth against the genus Pythium (PSA plate). The settings on record: compound alone, 20° C., 3 days. As to the method: A mycangium (diameter: 4 mm) obtained by precultivation was transplanted on PSA containing a chemical in a prescribed concentration and then cultured at room temperature of 20° C. for 3 days, followed by measuring a diameter of the grown mycangium to determine an inhibition rate of mycelial growth (%). In addition, an expected value of the inhibition rate was calculated according to the following Colby's formula and listed in parentheses of Tables 1 to 3. […] Colby's formula: x+y−xy/100 x: Inhibition rate of growth of the component (a) alone (%) y: Inhibition rate of growth of the component (b) alone (%)

Another test relates to Rhizoctonia solani. Kind of test: Inhibition test of mycelial growth against the genus Rhizoctonia (PSA plate). Conditions: compound alone, 20° C., 4 days. On the procedure:
A mycangium (diameter: 4 mm) obtained by precultivation was transplanted on PSA containing a chemical in a prescribed concentration and then cultured at room temperature of 20° C. for 4 days, followed by measuring a diameter of the grown mycangium to determine an inhibition rate of mycelial growth (%). In addition, an expected value of the inhibition rate calculated according to the Colby's formula in the same manner as that in the foregoing Test Example 1 was listed in parentheses of Tables 4 to 6.

For a further test, the system named is Botrytis cinerea. Kind of test: Inhibition test of mycelial growth against gray mold (YS liquid medium, 96-well microplate). The settings on record: compound alone, 25° C., three days. On the procedure:
On a YS (yeast extract+sucrose) liquid culture medium, a certain amount of a chemical solution prepared such that a final concentration of each chemical became a concentration at which the test was carried out was mixed. 100 μL of each of the chemical-containing YS liquid culture media was aliquoted into each well of a 96-well microplate. Thereafter, 50 μL of a spore suspension of gray mold whose spore concentration had been prepared as shown in the following tables was aliquoted into each well and cultivated at 25° C. under a light-dark cycle (light period: 16 hours, dark period: 8 hours). Three days after the cultivation, an area of the well bottom covered by the propagated gray mold hyphae was microscopically examined to determine an inhibition rate of growth (%). The inhibition rate of growth was visually examined while defining an area covered by hyphae in a non-treated well as 100. For the non-treatment, a chemical-free YS liquid culture medium was used. In addition, an expected value of the inhibition rate calculated according to the Colby's formula in the same manner as that in the foregoing Test Example 1 was listed in parentheses of Tables 7 to 13.

Setting [1] is: Pythium graminicola, 72 h, read-out: Inhibition Rate of Mycelial Growth against Pythium graminicola (%).
The mark [2] stands for this setting: Pythium graminicola, 72 h, 10 ppm, read-out: Inhibition Rate of Mycelial Growth against Pythium graminicola (%).
Setting [3] is: Pythium graminicola, 72 h, 100 ppm, read-out: Inhibition Rate of Mycelial Growth against Pythium graminicola (%).
Setting [4] is: Rhizoctonia solani, 96 h, 0.1 ppm, read-out: Inhibition Rate of Mycelial Growth against Rhizoctonia solani (%).
The mark [5] stands for this setting: Rhizoctonia solani, 96 h, 1 ppm, read-out: Inhibition Rate of Mycelial Growth against Rhizoctonia solani (%).
The mark [6] stands for this setting: Rhizoctonia solani, 96 h, 10 ppm, read-out: Inhibition Rate of Mycelial Growth against Rhizoctonia solani (%).
The mark [7] stands for this setting: Botrytis cinerea, 72 h, read-out: Inhibition Rate of Mycelial Growth against Botrytis cinerea (%).
Where [8] appears, read: Botrytis cinerea, 72 h, 0.78 ppm, read-out: Inhibition Rate of Mycelial Growth against Botrytis cinerea (%).
Setting [9] is: Botrytis cinerea, 72 h, 1.56 ppm, read-out: Inhibition Rate of Mycelial Growth against Botrytis cinerea (%).

For the molecule `O=[N+]([O-])c1cc(C(F)(F)F)c(Cl)c([N+](=O)[O-])c1Nc1ncc(C(F)(F)F)cc1Cl` [fluazinam, 3-chloro-N-(3-chloro-5-trifluoromethyl-2-pyridyl)-α,α,α-trifluoro-2,6-dinitro-p-toluidine], the inhibition at 0.1 ppm in the test with Pythium graminicola (Pythium graminicola, 72 h, 0.1 ppm, read-out: Inhibition Rate of Mycelial Growth against Pythium graminicola (%)) worked out at 32%; in the test on Rhizoctonia solani (setting [4]) it was 70%. Further, the inhibition at 1 ppm with Pythium graminicola (setting [1]) came to 48%; in the test on Rhizoctonia solani (setting [5]) it was 77%. The results for the inhibition at 10 ppm in the test on Pythium graminicola (setting [2]) and with Rhizoctonia solani (setting [6]) were 60% and 85%, respectively. The inhibition at 100 ppm was 66% in the test with Pythium graminicola (setting [3]) and 87% in the test with Rhizoctonia solani (Rhizoctonia solani, 96 h, 100 ppm, read-out: Inhibition Rate of Mycelial Growth against Rhizoctonia solani (%)). The inhibition at 0.04 ppm with Botrytis cinerea (Botrytis cinerea, 72 h, 0.04 ppm, read-out: Inhibition Rate of Mycelial Growth against Botrytis cinerea (%)) amounted to 0%. The inhibition at 0.08 ppm with Botrytis cinerea (Botrytis cinerea, 72 h, 0.08 ppm, read-out: Inhibition Rate of Mycelial Growth against Botrytis cinerea (%)) amounted to 0%. The inhibition at 0.16 ppm with Botrytis cinerea (Botrytis cinerea, 72 h, 0.16 ppm, read-out: Inhibition Rate of Mycelial Growth against Botrytis cinerea (%)) worked out at 80%.

`CON=C(C(=O)OC)c1ccccc1CON=C(C)c1cccc(C(F)(F)F)c1` [trifloxystrobin]: the inhibition at 0.39 ppm in the test with Botrytis cinerea (setting [7]) was found to be 0%. Also, the inhibition at 0.78 ppm in the test on Botrytis cinerea (setting [8]) worked out at 0%. In the test with Botrytis cinerea (setting [9]), the inhibition at 1.56 ppm came to 0%.

As to `CNC(=O)/C(=N/OC)c1ccccc1Oc1ccccc1` [metominostrobin], the inhibition at 25 ppm in the test on Botrytis cinerea (Botrytis cinerea, 72 h, 25 ppm, read-out: Inhibition Rate of Mycelial Growth against Botrytis cinerea (%)) worked out at 0%. For the same molecule, the inhibition at 50 ppm in the test on Botrytis cinerea (Botrytis cinerea, 72 h, 50 ppm, read-out: Inhibition Rate of Mycelial Growth against Botrytis cinerea (%)) amounted to 1%. The inhibition at 100 ppm in the test on Botrytis cinerea (Botrytis cinerea, 72 h, 100 ppm, read-out: Inhibition Rate of Mycelial Growth against Botrytis cinerea (%)) worked out at 3%.

Regarding `CO/C=C(/C(=O)OC)c1ccccc1Oc1cc(Oc2ccccc2C#N)ncn1` [azoxystrobin], the figures for the “Inhibition Rate of Mycelial Growth against Pythium graminicola (%)” value in the test on Pythium graminicola (10 ppm) and with Pythium graminicola (100 ppm) were 89% and 100%, respectively. Besides, the “Inhibition Rate of Mycelial Growth against Rhizoctonia solani (%)” value was found to be 4% with Rhizoctonia solani (0.1 ppm), 27% in the test with Rhizoctonia solani (1 ppm) and 41% with Rhizoctonia solani (10 ppm). Also, the “Inhibition Rate of Mycelial Growth against Botrytis cinerea (%)” value with Botrytis cinerea (3.13 ppm) stood at 0%; in the test on Botrytis cinerea (6.25 ppm), 0%; in the test on Botrytis cinerea (12.5 ppm), 1%.

For the molecule `CO/N=C(/C(=O)OC)c1ccccc1COc1ccccc1C` [kresoxim-methyl], the values for the inhibition at 1 ppm with Pythium graminicola (setting [1]) and in the test on Rhizoctonia solani (setting [5]) were 56% and 39%, respectively. Moreover, the inhibition at 10 ppm amounted to 73% in the test with Pythium graminicola (setting [2]) and 42% in the test on Rhizoctonia solani (setting [6]). Further, in the test on Pythium graminicola (setting [3]), the inhibition at 100 ppm is 62%. In addition, in the test with Rhizoctonia solani (setting [4]), the inhibition at 0.1 ppm stood at 30%. Moreover, the inhibition at 3.13 ppm in the test with Botrytis cinerea (Botrytis cinerea, 72 h, 3.13 ppm, read-out: Inhibition Rate of Mycelial Growth against Botrytis cinerea (%)) was found to be 0%. Besides, in the test with Botrytis cinerea (Botrytis cinerea, 72 h, 6.25 ppm, read-out: Inhibition Rate of Mycelial Growth against Botrytis cinerea (%)), the inhibition at 6.25 ppm was determined as 1%. In the test on Botrytis cinerea (Botrytis cinerea, 72 h, 12.5 ppm, read-out: Inhibition Rate of Mycelial Growth against Botrytis cinerea (%)), the inhibition at 12.5 ppm came out at 1%.

Regarding `CNC(=O)/C(=N/OC)c1ccccc1COc1cc(C)ccc1C` [dimoxystrobin], the “Inhibition Rate of Mycelial Growth against Botrytis cinerea (%)” value in the test with Botrytis cinerea (0.78 ppm), in the test on Botrytis cinerea (1.56 ppm) and in the test with Botrytis cinerea (3.13 ppm) was 0% each time.

In the case of `CO/C=C(/C(=O)OC)c1ccccc1COc1cccc(C(F)(F)F)n1` [picoxystrobin], the “Inhibition Rate of Mycelial Growth against Botrytis cinerea (%)” value with Botrytis cinerea (6.25 ppm) was found to be 1%; with Botrytis cinerea (12.5 ppm) it was 2%; in the test on Botrytis cinerea (25 ppm) it was 3%.

As for `COC(=O)N(OC)c1ccccc1COc1ccn(-c2ccc(Cl)cc2)n1` [pyraclostrobin], the inhibition at 1 ppm with Pythium graminicola (setting [1]) was found to be 83%; in the test on Rhizoctonia solani (setting [5]) it was 55%. The inhibition at 10 ppm with Pythium graminicola (setting [2]) turned out to be 100%; in the test on Rhizoctonia solani (setting [6]), 67%. The inhibition at 100 ppm in the test on Pythium graminicola (setting [3]) was determined as 100%. In addition, in the test on Rhizoctonia solani (setting [4]), the inhibition at 0.1 ppm amounted to 26%. Besides, in the test with Botrytis cinerea (setting [7]), the inhibition at 0.39 ppm came to 0%. Moreover, the inhibition at 0.78 ppm in the test with Botrytis cinerea (setting [8]) was 1%. Also, the inhibition at 1.56 ppm in the test with Botrytis cinerea (setting [9]) came to 5%.
